Experimental data from US20230085307A1, “PYRIDAZINONE COMPOUND AND HERBICIDE” (NISSAN CHEMICAL CORPORATION, priority 2019, published 2023).

Columns and labels:
barnyard grass [1] = experiment: Test Example 3: herbicidal effect by foliage application, Wagner pot (Table 18, symbol H); type: in vivo, barnyard grass (Echinochloa crus-galli); conditions: amount of applied herbicide 320 g/ha
Summary of the method: (§1)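 Plants were sown in alluvial soil held under 0.1–0.5 cm standing water and grown 14 days in a greenhouse at 25–30 °C. An emulsifiable formulation, water-diluted to the set dose, was then sprayed onto the foliage, and effects were scored three weeks later using previously defined criteria.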

false cleavers = experiment: Test Example 5: herbicidal effect by foliage application, plastic box (Table 20, symbol Q); type: in vivo, false cleavers (Galium spurium); conditions: foliage application, 320 g/ha, three weeks after application
Summary of the method: (§2)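 Sow seeds spot-wise in sterilized diluvial soil; cover with ~1.5 cm soil. Grow 14 days in greenhouse, 25° C. to 30° C. Spray foliage with emulsion diluted to predetermined amount. Rate effect after 3 weeks.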

lambsquarters [2] = experiment: Test Example 5: herbicidal effect by foliage application, plastic box (Table 20, symbol O); type: in vivo, lambsquarters (Chenopodium album); conditions: foliage application, 320 g/ha, three weeks after application
Summary of the method: as §2

Italian ryegrass [3] = experiment: Test Example 4: herbicidal effect by soil treatment (Table 19, symbol K); type: in vivo, Italian ryegrass (Lolium multiflorum); conditions: amount of applied herbicide 320 g/ha
Summary of the method: (§3)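 Soil-surface application: an emulsion agent diluted with water to the predetermined dose is sprayed uniformly over seeds lying under roughly 1.5 cm of sterilized diluvial soil. Boxes stay in a greenhouse at 25° C. to 30° C. Three weeks later, each species is graded on previously defined criteria.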

blackgrass [4] = experiment: Test Example 4: herbicidal effect by soil treatment (Table 19, symbol J); type: in vivo, blackgrass (Alopecurus myosuroides); conditions: amount of applied herbicide 320 g/ha
Summary of the method: as §3

lambsquarters [5] = experiment: Test Example 4: herbicidal effect by soil treatment (Table 19, symbol O); type: in vivo, lambsquarters (Chenopodium album); conditions: amount of applied herbicide 320 g/ha
Summary of the method: as §3

green foxtail [6] = experiment: Test Example 4: herbicidal effect by soil treatment (Table 19, symbol G); type: in vivo, green foxtail (Setaria viridis); conditions: amount of applied herbicide 320 g/ha
Summary of the method: as §3

persian speedwell [7] = experiment: Test Example 4: herbicidal effect by soil treatment (Table 19, symbol R); type: in vivo, Persian speedwell (Veronica persica); conditions: amount of applied herbicide 320 g/ha
Summary of the method: as §3

windgrass [8] = experiment: Test Example 4: herbicidal effect by soil treatment (Table 19, symbol L); type: in vivo, windgrass (Apera spica-venti); conditions: amount of applied herbicide 320 g/ha
Summary of the method: as §3

wild oat [9] = experiment: Test Example 4: herbicidal effect by soil treatment (Table 19, symbol I); type: in vivo, wild oat (Avena fatua); conditions: amount of applied herbicide 320 g/ha
Summary of the method: as §3

redroot pigweed = experiment: Test Example 4: herbicidal effect by soil treatment (Table 19, symbol N); type: in vivo, redroot pigweed (Amaranthus retroflexus); conditions: amount of applied herbicide 320 g/ha
Summary of the method: as §3

chickweed = experiment: Test Example 4: herbicidal effect by soil treatment (Table 19, symbol P); type: in vivo, common chickweed (Stellaria media); conditions: amount of applied herbicide 320 g/ha
Summary of the method: as §3

Japanese bulrush = experiment: Test Example 1: herbicidal activity, application before weed generation under submerged conditions (Table 16, symbol B); type: in vivo, Japanese bulrush (Schoenoplectus juncoides); conditions: amount of applied herbicide 320 g/ha
Summary of the method: (§4)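 Submerged Wagner pots (alluvial soil, 4 cm water) sown with weed seeds and planted with 2.5-leaf rice seedlings; emulsifiable concentrate diluted in water applied to water surface on sowing day. Held in greenhouse at 25-30 °C; injury scored 0-5 by herbicidal rate after three weeks.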

oval-leafed pondweed = experiment: Test Example 1: herbicidal activity, application before weed generation under submerged conditions (Table 16, symbol C); type: in vivo, oval-leafed pondweed (Monochoria vaginalis); conditions: amount of applied herbicide 320 g/ha
Summary of the method: as §4

velvetleaf [10] = experiment: Test Example 5: herbicidal effect by foliage application, plastic box (Table 20, symbol M); type: in vivo, velvetleaf (Abutilon theophrasti); conditions: foliage application, 320 g/ha, three weeks after application
Summary of the method: as §2

southern crabgrass [11] = experiment: Test Example 5: herbicidal effect by foliage application, plastic box (Table 20, symbol F); type: in vivo, southern crabgrass (Digitaria ciliaris); conditions: foliage application, 320 g/ha, three weeks after application
Summary of the method: as §2

velvetleaf [12] = experiment: Test Example 4: herbicidal effect by soil treatment (Table 19, symbol M); type: in vivo, velvetleaf (Abutilon theophrasti); conditions: amount of applied herbicide 320 g/ha
Summary of the method: as §3

southern crabgrass [13] = experiment: Test Example 4: herbicidal effect by soil treatment (Table 19, symbol F); type: in vivo, southern crabgrass (Digitaria ciliaris); conditions: amount of applied herbicide 320 g/ha
Summary of the method: as §3

barnyard grass [14] = experiment: Test Example 4: herbicidal effect by soil treatment (Table 19, symbol H); type: in vivo, barnyard grass (Echinochloa crus-galli); conditions: amount of applied herbicide 320 g/ha
Summary of the method: as §3

persian speedwell [15] = experiment: Test Example 5: herbicidal effect by foliage application, plastic box (Table 20, symbol R); type: in vivo, Persian speedwell (Veronica persica); conditions: foliage application, 320 g/ha, three weeks after application
Summary of the method: as §2

rice flat sedge = experiment: Test Example 3: herbicidal effect by foliage application, Wagner pot (Table 18, symbol E); type: in vivo, rice flat sedge (Cyperus iria); conditions: amount of applied herbicide 320 g/ha
Summary of the method: as §1

green foxtail [16] = experiment: Test Example 5: herbicidal effect by foliage application, plastic box (Table 20, symbol G); type: in vivo, green foxtail (Setaria viridis); conditions: foliage application, 320 g/ha, three weeks after application
Summary of the method: as §2

wild oat [17] = experiment: Test Example 5: herbicidal effect by foliage application, plastic box (Table 20, symbol I); type: in vivo, wild oat (Avena fatua); conditions: foliage application, 320 g/ha, three weeks after application
Summary of the method: as §2

Italian ryegrass [18] = experiment: Test Example 5: herbicidal effect by foliage application, plastic box (Table 20, symbol K); type: in vivo, Italian ryegrass (Lolium multiflorum); conditions: foliage application, 320 g/ha, three weeks after application
Summary of the method: as §2

blackgrass [19] = experiment: Test Example 5: herbicidal effect by foliage application, plastic box (Table 20, symbol J); type: in vivo, blackgrass (Alopecurus myosuroides); conditions: foliage application, 320 g/ha, three weeks after application
Summary of the method: as §2

Chinese sprangletop = experiment: Test Example 3: herbicidal effect by foliage application, Wagner pot (Table 18, symbol D); type: in vivo, chinese sprangletop (Leptochloa chinensis); conditions: amount of applied herbicide 320 g/ha
Summary of the method: as §1

late watergrass = experiment: Test Example 1: herbicidal activity, application before weed generation under submerged conditions (Table 16, symbol A); type: in vivo, late watergrass (Echinochloa oryzicola); conditions: amount of applied herbicide 320 g/ha
Summary of the method: as §4

windgrass [20] = experiment: Test Example 5: herbicidal effect by foliage application, plastic box (Table 20, symbol L); type: in vivo, windgrass (Apera spica-venti); conditions: foliage application, 320 g/ha, three weeks after application
Summary of the method: as §2

barnyard grass [21] = experiment: Test Example 5: herbicidal effect by foliage application, plastic box (Table 20, symbol H); type: in vivo, barnyard grass (Echinochloa crus-galli); conditions: foliage application, 320 g/ha, three weeks after application
Summary of the method: as §2

## CCOc1cc(F)ccc1-c1oc2ccc(C)cc2c1-c1c(O)c(C)nn(C)c1=O [9-011]
Barnyard grass [1]
  Herbicidal effect on H (barnyard grass), foliage application: 5 (Herbicidal rate of 90% or more (almost completely withered))
False cleavers
  herbicidal effect on false cleavers (Q): 4 (Herbicidal rate of 70% or more and less than 90%)
Lambsquarters [2]
  herbicidal effect on lambsquarters (O): 4 (Herbicidal rate of 70% or more and less than 90%)
Italian ryegrass [3]
  K: Italian ryegrass, herbicidal effect grade: 0 (Herbicidal rate of 5% or less (almost no effect))
Blackgrass [4]
  J: blackgrass, herbicidal effect grade: 2 (Herbicidal rate of 20% or more and less than 40%)
Lambsquarters [5]
  O: lambsquarters, herbicidal effect grade: 4 (Herbicidal rate of 70% or more and less than 90%)
Green foxtail [6]
  G: green foxtail, herbicidal effect grade: 0 (Herbicidal rate of 5% or less (almost no effect))
Persian speedwell [7]
  R: persian speedwell, herbicidal effect grade: 3 (Herbicidal rate of 40% or more and less than 70%)
Windgrass [8]
  L: windgrass, herbicidal effect grade: 3 (Herbicidal rate of 40% or more and less than 70%)
Wild oat [9]
  I: wild oat, herbicidal effect grade: 0 (Herbicidal rate of 5% or less (almost no effect))
Redroot pigweed
  N: redroot pigweed, herbicidal effect grade: 3 (Herbicidal rate of 40% or more and less than 70%)
chickweed
  P: chickweed, herbicidal effect grade: 1 (Herbicidal rate of 5% or more and less than 20%)
Japanese bulrush
  Herbicidal effect, B: Japanese bulrush: 2 (Herbicidal rate of 20% or more and less than 40%)
oval-leafed pondweed
  Herbicidal effect, C: oval-leafed pondweed: 1 (Herbicidal rate of 5% or more and less than 20%)
Velvetleaf [10]
  herbicidal effect on velvetleaf (M): 3 (Herbicidal rate of 40% or more and less than 70%)
Southern crabgrass [11]
  herbicidal effect on southern crabgrass (F): 2 (Herbicidal rate of 20% or more and less than 40%)
Velvetleaf [12]
  M: velvetleaf, herbicidal effect grade: 0 (Herbicidal rate of 5% or less (almost no effect))
Southern crabgrass [13]
  F: southern crabgrass, herbicidal effect grade: 2 (Herbicidal rate of 20% or more and less than 40%)
Barnyard grass [14]
  H: barnyard grass, herbicidal effect grade: 0 (Herbicidal rate of 5% or less (almost no effect))
Persian speedwell [15]
  herbicidal effect on persian speedwell (R): 4 (Herbicidal rate of 70% or more and less than 90%)
Rice flat sedge
  Herbicidal effect on E (rice flat sedge), foliage application: 4 (Herbicidal rate of 70% or more and less than 90%)
Green foxtail [16]
  herbicidal effect on green foxtail (G): 2 (Herbicidal rate of 20% or more and less than 40%)
Wild oat [17]
  herbicidal effect on wild oat (I): 3 (Herbicidal rate of 40% or more and less than 70%)
Italian ryegrass [18]
  herbicidal effect on Italian ryegrass (K): 0 (Herbicidal rate of 5% or less (almost no effect))
Blackgrass [19]
  herbicidal effect on blackgrass (J): 4 (Herbicidal rate of 70% or more and less than 90%)
Chinese sprangletop
  Herbicidal effect on D (Chinese sprangletop), foliage application: 0 (Herbicidal rate of 5% or less (almost no effect))
Late watergrass
  Herbicidal effect, A: late watergrass: 3 (Herbicidal rate of 40% or more and less than 70%)
Windgrass [20]
  herbicidal effect on windgrass (L): 1 (Herbicidal rate of 5% or more and less than 20%)
Barnyard grass [21]
  herbicidal effect on barnyard grass (H): 4 (Herbicidal rate of 70% or more and less than 90%)
